Data from patent US20180250306A1, “ALDEHYDE CONJUGATES AND USES THEREOF” (ALDEYRA THERAPEUTICS, INC., priority 2015, published 2018).

Columns and labels:
[1] = Aldehyde adduct formation over time (product HPLC peak)
Method: It is not possible to conclude if this is the result of poor dissociation (from cyclodextrin) or poor interaction with the aldehyde. Best fit lines over this period give excellent fit to data. […] It can be used to relatively rank each of the samples examined, including NS2. The data were first evaluated over a 7 h time window.

[2] = Preliminary single dose i.p. pharmacokinetics of NS2 and NS2-SSA adduct formation in wild type mice; format: in vivo, wild type C57B16 mice
Method: Mice were 41-46 days old on the day of treatment, and groups (n=3) were balanced for age, gender and starting weight (18±3 g). […] The results of this study informed the design of a subsequent 8-hour single dose study to measure additional biochemical outcomes (GHB and related metabolites) in both SSADH deficient mice and wild type littermates.
A preliminary assessment of single dose, i.p. pharmacokinetics (PK) was conducted in wild type C57B16 mice. Mice were 41-46 days old at the time of dosing. […] Three mice per timepoint were used for pharmacokinetic analysis. The study design is outlined in Table 6 below.
Homogenates (100 μL) were protein-precipitated with cold acetonitrile containing 0.1% formic acid (900 μL). Serum samples (25 μL) were protein-precipitated with 425 μL of cold acetonitrile containing 0.1% formic acid. Samples were centrifuged at 2,500×g then supernatant was transferred to a clean tube and dried under a constant heated flow of nitrogen (50° C.). Samples were reconstituted in 100 μL of mobile phase A (water with 0.1% formic acid, LC-MS/MS grade reagents).
These studies were performed only in wild-type C57B16 mice (n=21). […] The mice ranged in age from 41-46 days of age.

[3] = rank from most effective (1) to least
[4] = wild type mice, single dose 10 mg/kg i.p.

CC(C)(O)c1nc2ccc(Cl)cc2cc1N [NS2, 2-(3-amino-6-chloroquinolin-2-yl)propan-2-ol]
Gradient of product HPLC peak increase (rate of adduct formation) ([1]; 7 h time window): (Gradient 2.22, | Gradient of product HPLC peak increase (rate of adduct formation) ([1]; 23 h time window): (Gradient 1.33, | Formation of Product, ranking, 7 Hours [1, 3]: 2 | Formation of Product, ranking, 23 Hours [1, 3]: 2 | concentration at 24 h ([2]; both sexes, C57B16 (wild type), mouse, serum, ip, wild type mice, single dose 10 mg/kg i.p., by 24 hours): < 50 nM | tolerability ([2]; mouse, in vivo, ip, 10 mg/kg): tolerated | brain penetration of NS2 [2, 4]: good brain penetration | order of NS2 pharmacokinetics [2, 4]: first-order pharmacokinetics | peak serum concentration of NS2 [2, 4]: 43.1 ± 15.4 µM | time to peak serum concentration of NS2 [2, 4]: 0.5 h | peak concentration of NS2 in brain ([2]; wild type mice, single dose 10 mg/kg i.p., brain): 52.4±22.9 | peak concentration of NS2 in liver ([2]; wild type mice, single dose 10 mg/kg i.p., liver): 116±3.1
